The values below come from ChEMBL document CHEMBL1130563, “The synthesis of (R)-1-(2-oxocyclopentyliden)-2-alkanols and the (S)-forms, and their bio-antimutagenic activity against UV-induced Escherichia coli WP2 B/r Trp” (1997).

The subject of assay [1] is Escherichia coli. Nature of the assay: Compound was tested for half inhibition-dose of mutation frequency of UV-induced Escherichia coli WP2 B/r Trp. The format is functional.
Assay [2] deals with Escherichia coli. Nature of the assay: Microbicidal activity against UV-induced Escherichia coli WP2 B/r Trp at a dose of 150 ug/mL; Not active. The format is functional, organism-based.
The subject of assay [3] is Escherichia coli. Nature of the assay: Bio-antimutagenic activity against UV-induced Escherichia coli WP2 B/r Trp; Not active. Type of assay: functional, organism-based.
The subject of assay [4] is Escherichia coli. Nature of the assay: Microbicidal activity against UV-induced Escherichia coli WP2 B/r Trp at a dose of 120 ug/mL; Not active. The format is functional, organism-based.
The subject of assay [5] is Escherichia coli. Nature of the assay: Bio-antimutagenic activity against UV-induced Escherichia coli WP2 B/r Trp. The format is functional.

Activity calls are given as the source filed them. The rule behind the calls is not given here.

On to `CCCCCCC(O)/C=C1/CCCC1=O` (stereo not given), for which the AD50 in the assay with Escherichia coli [1] amounted to 79 µg/mL.
On to `CCCCCCCCC(O)/C=C1/CCCC1=O` (stereo not given), for which the AD50 with Escherichia coli [1] is 6.7 µg/mL.
Regarding `CCCCCCCC[C@@H](O)/C=C1/CCCC1=O`, the result in the assay with Escherichia coli [2] was inactive. Also, in the assay on Escherichia coli [3], the AD50 entry is “inactive”.
As for `CCCCCCCC[C@H](O)/C=C1/CCCC1=O`, the outcome in the assay on Escherichia coli [4] was inactive. The same compound had an AD50 in the assay on Escherichia coli [5] of 50 µg/mL.
Regarding `CCCCCC[C@@H](O)/C=C1/CCCC1=O`, the result with Escherichia coli [2] was inactive. In addition, in the assay with Escherichia coli [3], the AD50 entry was “inactive”.
As to `CCCCCC[C@H](O)/C=C1/CCCC1=O`, the outcome in the assay on Escherichia coli [4] was inactive. The compound further returned an AD50 in the assay on Escherichia coli [5] of 50 µg/mL.
